Columns and labels:
D(4) dopamine receptor = molecular target: T1, D(4) dopamine receptor (Homo sapiens, UniProt P21917); experiment: DRUGMATRIX: Dopamine D4.2 radioligand binding (ligand: [3H] Spiperone); type: cell membranes, CHO-K1, Membrane; conditions: cho-k1; Not Active = under 50% inhibition at 10 µM
T1 sequence (P21917 whole entry): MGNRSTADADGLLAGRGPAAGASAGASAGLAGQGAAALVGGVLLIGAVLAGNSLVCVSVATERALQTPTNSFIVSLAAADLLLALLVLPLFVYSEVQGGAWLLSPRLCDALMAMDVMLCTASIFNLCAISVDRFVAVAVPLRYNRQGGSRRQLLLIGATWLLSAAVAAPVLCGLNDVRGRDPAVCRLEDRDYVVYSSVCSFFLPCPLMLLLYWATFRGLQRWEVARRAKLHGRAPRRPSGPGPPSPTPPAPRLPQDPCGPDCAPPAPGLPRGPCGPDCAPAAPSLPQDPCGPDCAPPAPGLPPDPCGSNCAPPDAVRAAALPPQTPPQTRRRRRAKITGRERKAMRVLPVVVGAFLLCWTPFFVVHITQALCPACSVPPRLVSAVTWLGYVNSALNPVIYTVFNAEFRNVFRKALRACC

[1] = molecular target: Tyrosine-protein kinase Fyn (Homo sapiens, UniProt P06241); experiment: biochemical; type: cell-based, Insect cells; conditions: insect cells;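 also: enzymatic inhibition of Fyn kinase activity measured with Poly(Glu:Tyr) as the phosphorylation substrate; in other assays of this panel Not Active means under 50% inhibition at 10 µM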
Androgen receptor = molecular target: T2, Androgen receptor (Rattus norvegicus, UniProt P15207); also: in other assays of this panel Not Active means under 50% inhibition at 10 µM
T2 sequence (P15207 whole entry): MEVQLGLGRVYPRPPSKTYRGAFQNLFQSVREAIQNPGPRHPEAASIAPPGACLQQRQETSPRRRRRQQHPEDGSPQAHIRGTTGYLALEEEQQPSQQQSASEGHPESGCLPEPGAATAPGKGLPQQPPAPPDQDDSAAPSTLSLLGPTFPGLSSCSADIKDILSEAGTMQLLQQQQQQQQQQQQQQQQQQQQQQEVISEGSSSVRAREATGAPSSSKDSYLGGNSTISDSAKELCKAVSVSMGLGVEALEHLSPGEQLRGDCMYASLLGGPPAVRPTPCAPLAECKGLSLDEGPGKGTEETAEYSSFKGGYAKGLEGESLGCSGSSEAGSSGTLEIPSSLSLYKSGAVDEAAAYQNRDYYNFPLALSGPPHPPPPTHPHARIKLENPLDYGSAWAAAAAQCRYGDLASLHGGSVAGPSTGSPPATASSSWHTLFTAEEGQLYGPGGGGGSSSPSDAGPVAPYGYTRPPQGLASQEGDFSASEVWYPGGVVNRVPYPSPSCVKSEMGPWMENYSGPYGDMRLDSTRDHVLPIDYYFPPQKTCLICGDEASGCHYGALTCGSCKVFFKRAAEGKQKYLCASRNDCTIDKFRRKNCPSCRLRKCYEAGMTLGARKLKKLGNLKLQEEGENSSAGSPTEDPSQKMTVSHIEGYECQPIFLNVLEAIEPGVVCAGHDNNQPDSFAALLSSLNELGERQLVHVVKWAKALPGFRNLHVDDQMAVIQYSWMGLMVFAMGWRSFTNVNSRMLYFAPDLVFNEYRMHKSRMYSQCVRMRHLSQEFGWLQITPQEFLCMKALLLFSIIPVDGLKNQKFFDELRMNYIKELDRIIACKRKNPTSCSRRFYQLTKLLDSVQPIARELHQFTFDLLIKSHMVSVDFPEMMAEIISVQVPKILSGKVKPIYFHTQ

Tyrosine-protein kinase Fyn, sequence (P06241 whole entry): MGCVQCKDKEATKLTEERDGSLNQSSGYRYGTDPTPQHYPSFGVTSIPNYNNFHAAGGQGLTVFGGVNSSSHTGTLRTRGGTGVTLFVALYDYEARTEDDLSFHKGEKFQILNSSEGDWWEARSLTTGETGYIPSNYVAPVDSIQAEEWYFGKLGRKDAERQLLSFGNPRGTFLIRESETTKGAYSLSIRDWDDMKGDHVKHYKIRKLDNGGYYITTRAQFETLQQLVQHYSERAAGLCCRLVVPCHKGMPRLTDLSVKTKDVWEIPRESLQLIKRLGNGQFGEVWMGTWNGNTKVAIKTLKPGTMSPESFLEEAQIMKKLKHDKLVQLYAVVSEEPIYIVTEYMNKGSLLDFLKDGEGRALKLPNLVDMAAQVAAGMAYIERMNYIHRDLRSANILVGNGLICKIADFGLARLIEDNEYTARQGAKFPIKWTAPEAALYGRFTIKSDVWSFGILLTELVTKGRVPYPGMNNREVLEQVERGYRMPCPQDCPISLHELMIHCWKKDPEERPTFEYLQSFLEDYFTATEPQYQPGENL

SMILES | IC50 (D(4) dopamine receptor) | IC50 [1] | IC50 (Androgen receptor)
O=C(O)c1cc(-c2ccc(F)cc2F)ccc1O [DIFLUNISAL] | Not Active | Not Active | 
CCn1cc(C(=O)O)c(=O)c2cc(F)c(N3CCNC(C)C3)c(F)c21 (stereo not given) [LOMEFLOXACIN] | Not Active | Not Active | 
CN(C)C(=O)Oc1cccc([N+](C)(C)C)c1.[Br-] [NEOSTIGMINE BROMIDE] | Not Active | Not Active | 
CN1CCCC(CN2c3ccccc3Sc3ccccc32)C1 (stereo not given) [MEPAZINE] | Not Active | Not Active | 
CCN(CC)CCCC(C)Nc1c2ccc(Cl)cc2nc2ccc(OC)cc12 (stereo not given) [QUINACRINE] | Not Active | Not Active | Not Active
C[C@H]1[C@H](NC(=O)/C(=N\OC(C)(C)C(=O)O)c2csc(N)n2)C(=O)N1S(=O)(=O)O [AZTREONAM] | Not Active | Not Active | 
CO/N=C(\C(=O)N[C@@H]1C(=O)N2C(C(=O)O)=C(COC(C)=O)CS[C@H]12)c1csc(N)n1 [CEFOTAXIME] | Not Active | Not Active | 
CC(C)c1c(C(=O)Nc2ccccc2)c(-c2ccccc2)c(-c2ccc(F)cc2)n1CC[C@@H](O)C[C@@H](O)CC(=O)O [ATORVASTATIN] | Not Active | Not Active | 
CCN(C(C)=O)c1cccc(-c2ccnc3c(C#N)cnn23)c1 [ZALEPLON] | Not Active | Not Active | 
N[C@@H](Cn1ccc(=O)c(O)c1)C(=O)O [L-MIMOSINE] | Not Active | Not Active | Not Active
Nc1cc(-c2ccncc2)c[nH]c1=O [INAMRINONE] | Not Active | Not Active | Not Active
NC(=O)c1cccc(N)c1 [3-AMINOBENZAMIDE] | Not Active | Not Active | Not Active
NC(=O)c1cccnc1 [NIACINAMIDE] | Not Active | Not Active | 
CCC1=C(C)CN(C(=O)NCCc2ccc(S(=O)(=O)NC(=O)N[C@H]3CC[C@H](C)CC3)cc2)C1=O [GLIMEPIRIDE] | Not Active | Not Active | Not Active
CC(C)NCC(O)c1ccccc1Cl (stereo not given) [CLORPRENALINE] | Not Active | Not Active | Not Active
COc1cccc2c1C(=O)c1c(O)c3c(c(O)c1C2=O)C[C@@](O)(C(C)=O)C[C@@H]3O[C@H]1C[C@H](N)[C@H](O)[C@H](C)O1 [DAUNORUBICIN] | Not Active | Not Active | 
COc1ccccc1N | Not Active | Not Active | 
CC[C@]1(O)C[C@@H]2CN(CCc3c([nH]c4ccccc34)[C@@](C(=O)OC)(c3cc4c(cc3OC)N(C)[C@H]3[C@@](O)(C(N)=O)[C@H](O)[C@]5(CC)C=CCN6CC[C@]43[C@@H]65)C2)C1 [VINDESINE] | Not Active | Not Active | Not Active
CCOc1nc2cccc(C(=O)O)c2n1Cc1ccc(-c2ccccc2-c2nnn[nH]2)cc1 | Not Active | Not Active | Not Active
C[S+](C)[O-] [DIMETHYL SULFOXIDE] | Not Active | Not Active | 
C[C@@H]1O[C@@H](O[C@H]2C[C@@H](O)[C@]3(CO)[C@H]4[C@H](O)C[C@]5(C)[C@@H](C6=CC(=O)OC6)CC[C@]5(O)[C@@H]4CC[C@]3(O)C2)[C@H](O)[C@H](O)[C@H]1O [OUABAIN] | Not Active | Not Active | Not Active
O=C(O)CCNC(=O)c1ccc(/N=N/c2ccc(O)c(C(=O)O)c2)cc1 [BALSALAZIDE] | Not Active | Not Active | 
N=C(N)c1ccc(OCCCCCOc2ccc(C(=N)N)cc2)cc1 [PENTAMIDINE] | Not Active | Not Active | 
CN1C(=O)CN=C(c2ccccc2)c2cc([N+](=O)[O-])ccc21 [NIMETAZEPAM] | Not Active | Not Active | Not Active
NS(=O)(=O)c1cc(C2(O)NC(=O)c3ccccc32)ccc1Cl (stereo not given) [CHLORTHALIDONE] | Not Active | Not Active | 
CN1C[C@@H]2C[C@H]1CN2c1cc2c(cc1F)c(=O)c(C(=O)O)cn2C1CC1 [DANOFLOXACIN] | Not Active | Not Active | 
CN1CCN(c2c(F)cc3c(=O)c(C(=O)O)cn(CCF)c3c2F)CC1 [FLEROXACIN] | Not Active | Not Active | 
CC(C)(C(=O)O)c1ccc(C(O)CCCN2CCC(C(O)(c3ccccc3)c3ccccc3)CC2)cc1 (stereo not given) [FEXOFENADINE] | Not Active | Not Active | 

SMILES | IC50 (D(4) dopamine receptor) | IC50 [1] | IC50 (Androgen receptor)
CC(O)(P(=O)(O)O)P(=O)(O)O [ETIDRONIC ACID] | Not Active | Not Active | 
CCN(CC)CCNC(=O)c1ccc(N)cc1 [PROCAINAMIDE] | Not Active | Not Active | 
Cc1cccc(C)c1NC(=O)C1CCCCN1C (stereo not given) [MEPIVACAINE] | Not Active | Not Active | 
O=c1[nH]c(=O)n([C@H]2C[C@H](O)[C@@H](CO)O2)cc1F [FLOXURIDINE] | Not Active | Not Active | 
O=C(O)CC(O)(CC(=O)O)C(=O)O [CITRIC ACID] | Not Active | Not Active | 
Cc1cc(O)cc(C)c1Cl [CHLOROXYLENOL] | Not Active | Not Active | 
CCCNC(=O)NS(=O)(=O)c1ccc(Cl)cc1 [CHLORPROPAMIDE] | Not Active | Not Active | 
NCCCNCCSP(=O)(O)O [AMIFOSTINE] | Not Active | Not Active | 
CC(C)(C)NCC(O)COc1cccc2c1CC(O)C(O)C2 (stereo not given) [NADOLOL] | Not Active | Not Active | 
C[C@H]1COc2c(N3CCN(C)CC3)c(F)cc3c(=O)c(C(=O)O)cn1c23.C[C@H]1COc2c(N3CCN(C)CC3)c(F)cc3c(=O)c(C(=O)O)cn1c23.O [LEVOFLOXACIN] | Not Active | Not Active | 
COc1ccnc(C[S+]([O-])c2nc3ccc(OC(F)F)cc3[nH]2)c1OC (stereo not given) [PANTOPRAZOLE] | Not Active | Not Active | 
CCCCC1=NC2(CCCC2)C(=O)N1Cc1ccc(-c2ccccc2-c2nnn[nH]2)cc1 [IRBESARTAN] | Not Active | Not Active | 
CN(C)CCC=C1c2ccccc2CCc2ccccc21 [AMITRIPTYLINE] | Not Active | Not Active | 
C[N+](C)(C)C[C@H](O)CC(=O)[O-] [LEVOCARNITINE] | Not Active | Not Active | 
O=C(O)P(=O)(O)O [FOSCARNET] | Not Active | Not Active | 
CC1=NN(c2ccccc2)C(=O)C1 [EDARAVONE] | Not Active | Not Active | 
CCCNC(C)C(=O)Nc1ccccc1C (stereo not given) [PRILOCAINE] | Not Active | Not Active | 
C[C@@H]1C/C=C/C=C/C=C/C=C/[C@H](O[C@@H]2O[C@H](C)[C@@H](O)[C@H](N)[C@@H]2O)C[C@@H]2O[C@](O)(C[C@@H](O)C[C@H]3O[C@@H]3/C=C/C(=O)O1)C[C@H](O)[C@H]2C(=O)O [NATAMYCIN] | Not Active | Not Active | 
C[C@H]1O[C@H](O[C@H]2[C@H](O)[C@@H](O)[C@@H](O[C@H]3[C@H](O)[C@@H](O)C(O)O[C@@H]3CO)O[C@@H]2CO)[C@H](O)[C@@H](O)[C@@H]1N[C@H]1C=C(CO)[C@@H](O)[C@H](O)[C@H]1O (stereo not given in full) [ACARBOSE] | Not Active | Not Active | 
CN(C)C(=N)NC(=N)N [METFORMIN] | Not Active | Not Active | 
CCc1ccc(CCOc2ccc(CC3SC(=O)NC3=O)cc2)nc1 (stereo not given) [PIOGLITAZONE] | Not Active | Not Active | 
Cn1c(=O)c2c(ncn2C)n(C)c1=O [CAFFEINE] | Not Active | Not Active | 
C[C@]12CC[C@H]3[C@@H](CCC4=CC(=O)CC[C@@H]43)[C@@H]1CC[C@@H]2O [NANDROLONE] | Not Active | Not Active | 
CS(=O)(=O)Nc1ccc([N+](=O)[O-])cc1Oc1ccccc1 [NIMESULIDE] | Not Active | Not Active | 
CN1CCC(=C2c3ccccc3CC(=O)c3sccc32)CC1 [KETOTIFEN] | Not Active | Not Active | 
NC12CC3CC(CC(C3)C1)C2 [AMANTADINE] | Not Active | Not Active | 
NC(=O)N1c2ccccc2CC(=O)c2ccccc21 [OXCARBAZEPINE] | Not Active | Not Active | 

— ChEMBL document CHEMBL1909046, “DrugMatrix in vitro pharmacology data”
